These results are taken from patent US5002958A, “Hypotensive agent” (priority 1987, dated 1991).

Where a name gives a salt, the structure may show the parent alone.

The nature of series [1]: Acute toxicity (LD50) in rats. As to conditions: rat, in vivo, Rats (SD).
Series [2] is described as follows: Acute toxicity (LD50) in dogs. As to conditions: dog, in vivo, po, Dogs (Beagles).
Series [3] deals with dogs suffering from Goldblatt hypertension. Kind of series: Effect of single oral administration on blood pressure of dogs suffering from Goldblatt hypertension. It is filed as in vivo, Female beagles. As to conditions: 10 mg/kg oral; for reduction in the blood pressure / blood pressure after 3 h: once, after 3 h; for reduction in the blood pressure: result in words; for blood pressure after 3 h / blood pressure before administration: systolic pressure; for blood pressure after 3 h: control group 201±3 mmHg, unchanged after 5 h; for blood pressure before administration: artery of the tail. The protocol:
Nicardipine hydrochloride was used as a control. The dose was 5 ml/kg.

The nature of series [4]: Solubility (physico-chemical properties). It is filed as physicochemical.
Series [5] can be described thus: Acute toxicity (LD50) in mice. As to conditions: mouse, in vivo, Mice (ICR).
Series [6] has as its system dogs suffering from Goldblatt hypertension. The settings on record: 10 mg/kg oral.
Method: Nicardipine hydrochloride was used as a control. The dose was 5 ml/kg. Commercially available tablets were given as they were by oral administration. Female beagles suffering from Goldblatt hypertension of "one clip one kidney" type were used. […] The blood pressure and heart rate were measured in the artery of the tail of each dog in a closed manner with a device for continuously measuring the systolic pressure (SCS-301; a product of Shimadzu Seisakusho Ltd.). […] The effects of eperisone hydrochloride given once by oral administration on the blood pressure and heart beat were compared with those of nicardipine hydrochloride. The nine beagles were divided into three groups, i.e. a control group, a group to which 10 mg/kg of eperisone hydrochloride was given and another group to which 10 mg/kg of nicardipine hydrochloride was given. Nine beagles were subjected to the tests of all three groups. Namely, administration was discontinued at intervals of one week according to Latin square. The blood pressure and heart rate were measured before administration and then at specified intervals from one hour to five hours after administration. The analysis of variance was conducted by the time series analysis. The test groups were compared with the control group by Dunnet's method.

As for `CCc1ccc(C(=O)C(C)CN2CCCCC2)cc1` (stereo not drawn) [eperisone hydrochloride, Eperisone hydrochloride], the LD50 in series [1] (iv, female) was 60 mg/kg; in series [1] (iv, male), 51 mg/kg; in series [1] (po, female) it was 1300 mg/kg; in series [1] (po, male), 1300 mg/kg; in series [2] (female), more than 750 mg/kg; in series [2] (male), more than 1080 mg/kg. Moreover, the LD50 was determined as 43.5 mg/kg in series [5] (iv, female); 43 mg/kg in series [5] (iv, male); 940 mg/kg in series [5] (po, female); 1040 mg/kg in series [5] (po, male). The “reduction in the blood pressure” value in series [3] was “a significant reduction in the blood pressure was observed”. Further, in series [3], the “blood pressure after 3 h” value turned out to be 172±3 mmHg. The “blood pressure before administration” value in series [3] is recorded as 202±4 mmHg. The “solubility in acetic anhydride” value in series [4] (acetic anhydride) is recorded as “relatively difficultly soluble”. Moreover, the solubility in acetone entry in series [4] (acetone) was “difficultly soluble”. Also, the solubility in ethanol entry in series [4] (ethanol) is “relatively easily soluble”. The solubility in ether entry in series [4] (ether) was “scarcely soluble”. The “solubility in water, methanol, chloroform or glacial acetic acid” value in series [4] (water, methanol, chloroform or glacial acetic acid) is recorded as “easily soluble”. Further, the solubility in water entry in series [4] (water, agents used in the pharmacological experiment) was “water-soluble”. For the same compound, the “heart rate before administration” value in series [6] was determined as 97±5 beats/min.

`COC(=O)C1=C(C)NC(C)=C(C(=O)OCCN(C)Cc2ccccc2)C1c1cccc([N+](=O)[O-])c1` (stereo not drawn) [nicardipine hydrochloride, Nicardipine hydrochloride, reference compound]: in series [3], the “reduction in the blood pressure” value was “a significant reduction in the blood pressure was also observed”, the “blood pressure after 3 h” value is given as 164±4 mmHg and the “blood pressure before administration” value is recorded as 200±4 mmHg. Further, in series [6], the “heart rate before administration” value turned out to be 106±7 beats/min.
